Experimental data as given in US20120178666A1 (SHIRE LLC, priority 2009, published 2012).

Key:
[1] = Prodrug stability in simulated intestinal fluid (USP); details: 37° C.
Protocol: (§1) The remaining concentrations of the prodrugs were then assayed by HPLC.

[2] = Prodrug stability in simulated gastric fluid (USP); details: 37° C.
Protocol: as §1

With `CC(C)[C@@H](N)C(=O)N[C@H](CCC(=O)NC(=N)NC(=O)Cc1c(Cl)cccc1Cl)C(=O)O` [Compound 31, (R)-Valine-(R)-γ-Glutamate(Guanfacine) Amide] the “% prodrug remaining following incubation for: 2 h in simulated intestinal fluid pH 6.8” value [1] was 85% and the “% prodrug remaining following incubation for: 1 h in simulated gastric fluid pH 1.1” value [2] was 70%.
With `CC(C)[C@H](NC(=O)CC(C)(C)CC(=O)NC(=N)NC(=O)Cc1c(Cl)cccc1Cl)C(=O)O` [Compound 33, Guanfacine 3,3 dimethylglutaryl (Valine) Amide] the “% prodrug remaining following incubation for: 2 h in simulated intestinal fluid pH 6.8” value [1] was 99% and the “% prodrug remaining following incubation for: 1 h in simulated gastric fluid pH 1.1” value [2] was 79%.
In the case of `C[C@@H](OC(=O)NC(=N)NC(=O)Cc1c(Cl)cccc1Cl)[C@H](NC(=O)[C@@H]1CCC(=O)N1)C(=O)O` [Compound 19, (S)-Pyroglutamic acid-(S)-Threonine(Guanfacine) Carbamate], the “% prodrug remaining following incubation for: 1 h in simulated gastric fluid pH 1.1” value [2] was 92%.
With `N=C(NC(=O)CCCNC(=O)CC[C@H](N)C(=O)O)NC(=O)Cc1c(Cl)cccc1Cl` [Compound 57, Guanfacine (GABA-(S)-Glutamate) Amide] the “% prodrug remaining following incubation for: 1 h in simulated gastric fluid pH 1.1” value [2] was 81%.
With `CC(C)[C@@H](NC(=O)COC(=O)NC(=N)NC(=O)Cc1c(Cl)cccc1Cl)C(=O)O` [Compound 30, Guanfacine (glycolyl-(R)-Valine) Carbamate] the “% prodrug remaining following incubation for: 2 h in simulated intestinal fluid pH 6.8” value [1] was 160% and the “% prodrug remaining following incubation for: 1 h in simulated gastric fluid pH 1.1” value [2] was 77%.
In the case of `CNCC(=O)NCCOC(=O)NC(=N)NC(=O)Cc1c(Cl)cccc1Cl` [Compound 71, Guanfacine ethanolamine-Sarcosine Carbamate], the “% prodrug remaining following incubation for: 2 h in simulated intestinal fluid pH 6.8” value [1] was 89% and the “% prodrug remaining following incubation for: 1 h in simulated gastric fluid pH 1.1” value [2] was 91%.
With `CC(C)[C@H](N)C(=O)NCCCC(=O)NC(=N)NC(=O)Cc1c(Cl)cccc1Cl` [Compound 56, Guanfacine (GABA-(S)-Valine) Amide] the “% prodrug remaining following incubation for: 1 h in simulated gastric fluid pH 1.1” value [2] was 70%.
In the case of `CNCC(=O)N[C@@H](CCC(=O)NC(=N)NC(=O)Cc1c(Cl)cccc1Cl)C(=O)O` [Compound 7, Sarcosine-(S)-γ-Glutamate-Guanfacine Amide], the “% prodrug remaining following incubation for: 2 h in simulated intestinal fluid pH 6.8” value [1] was 66% and the “% prodrug remaining following incubation for: 1 h in simulated gastric fluid pH 1.1” value [2] was 79%.
With `CN1CC(=O)N=C1NC(=O)Cc1c(Cl)cccc1Cl` [Compound 12, Cyclised Guanfacine Sarcosine Amide] the “% prodrug remaining following incubation for: 2 h in simulated intestinal fluid pH 6.8” value [1] was 87% and the “% prodrug remaining following incubation for: 1 h in simulated gastric fluid pH 1.1” value [2] was 48%.
In the case of `CC(C)[C@@H](N)C(=O)N[C@@H](COC(=O)NC(=N)NC(=O)Cc1c(Cl)cccc1Cl)C(=O)O` [Compound 18, (R)-Valine-(S)-Serine(Guanfacine) Carbamate], the “% prodrug remaining following incubation for: 1 h in simulated gastric fluid pH 1.1” value [2] was 74%.
In the case of `N=C(NC(=O)Cc1c(Cl)cccc1Cl)NC(=O)Oc1ccc(C[C@H](N)C(=O)O)cc1` [Compound 13, (S)-Tyrosine-(Guanfa ine) Carbamate], the “% prodrug remaining following incubation for: 2 h in simulated intestinal fluid pH 6.8” value [1] was 81% and the “% prodrug remaining following incubation for: 1 h in simulated gastric fluid pH 1.1” value [2] was 74%.
With `N=C(NC(=O)Cc1c(Cl)cccc1Cl)NC(=O)NC(C(=O)O)c1ccccc1` (centres unmarked) [Compound 8, Guanfacine Phenylglycine Urea] the “% prodrug remaining following incubation for: 2 h in simulated intestinal fluid pH 6.8” value [1] was 100% and the “% prodrug remaining following incubation for: 1 h in simulated gastric fluid pH 1.1” value [2] was 96%.
With `CC(C)[C@H](NC(=O)COC(=O)NC(=N)NC(=O)Cc1c(Cl)cccc1Cl)C(=O)O` [Compound 29, Guanfacine (glycolyl-(S)-Valine) Carbamate] the “% prodrug remaining following incubation for: 2 h in simulated intestinal fluid pH 6.8” value [1] was 99% and the “% prodrug remaining following incubation for: 1 h in simulated gastric fluid pH 1.1” value [2] was 80%.
In the case of `N=C(NC(=O)Cc1c(Cl)cccc1Cl)NC(=O)O[C@@H]1CN[C@H](C(=O)O)C1` [Compound 14, (S)-4-Hydroxyproline-(Guanfacine) Carbamate], the “% prodrug remaining following incubation for: 1 h in simulated gastric fluid pH 1.1” value [2] was 70%.
For `N=C(NC(=O)CC[C@H](NC(=O)c1ccc(C(=O)O)cc1)C(=O)O)NC(=O)Cc1c(Cl)cccc1Cl` [Compound 60, Terephthalic acid-(S)-γ-Glutamate(Guanfacine) Amide], the “% prodrug remaining following incubation for: 2 h in simulated intestinal fluid pH 6.8” value [1] was 97% and the “% prodrug remaining following incubation for: 1 h in simulated gastric fluid pH 1.1” value [2] was 81%.
With `CC(C)(COC(=O)NC(=N)NC(=O)Cc1c(Cl)cccc1Cl)[C@@H](O)C(=O)NCCC(=O)O` [Compound 68, Guanfacine Pantothenic acid Carbamate] the “% prodrug remaining following incubation for: 2 h in simulated intestinal fluid pH 6.8” value [1] was 75% and the “% prodrug remaining following incubation for: 1 h in simulated gastric fluid pH 1.1” value [2] was 86%.
For `N=C(NC(=O)Cc1c(Cl)cccc1Cl)NC(=O)OCCNC(=O)CC[C@H](N)C(=O)O` [Compound 58, Guanfacine (ethanolamine-(S)-γ-Glutamate) Carbamate], the “% prodrug remaining following incubation for: 2 h in simulated intestinal fluid pH 6.8” value [1] was 99% and the “% prodrug remaining following incubation for: 1 h in simulated gastric fluid pH 1.1” value [2] was 96%.
In the case of `N=C(NC(=O)CCCNC(=O)[C@@H]1CCC(=O)N1)NC(=O)Cc1c(Cl)cccc1Cl` [Compound 23, Guanfacine (GABA-(S)-Pyroglutamic acid) Amide], the “% prodrug remaining following incubation for: 2 h in simulated intestinal fluid pH 6.8” value [1] was 78% and the “% prodrug remaining following incubation for: 1 h in simulated gastric fluid pH 1.1” value [2] was 98%.
For `N=C(NC(=O)CC[C@H](NC(=O)[C@H](N)CCCCN)C(=O)O)NC(=O)Cc1c(Cl)cccc1Cl` [Compound 43, Guanfacine-(S)-γ-Glutamate-(R)-Lysine Amide], the “% prodrug remaining following incubation for: 2 h in simulated intestinal fluid pH 6.8” value [1] was 85% and the “% prodrug remaining following incubation for: 1 h in simulated gastric fluid pH 1.1” value [2] was 62%.
For `CC(C)[C@H](N)C(=O)N[C@H](C(=O)O)[C@@H](C)OC(=O)NC(=N)NC(=O)Cc1c(Cl)cccc1Cl` [Compound 20, (S)-Valine-(S)-Threonine(Guanfacine) Carbamate], the “% prodrug remaining following incubation for: 2 h in simulated intestinal fluid pH 6.8” value [1] was 100% and the “% prodrug remaining following incubation for: 1 h in simulated gastric fluid pH 1.1” value [2] was 79%.
With `N=C(NC(=O)Cc1c(Cl)cccc1Cl)NC(=O)OC[C@H](NC(=O)[C@@H]1CCC(=O)N1)C(=O)O` [Compound 16, (S)-Pyroglutamic acid-(S)-Serine(Guanfacine) Carbamate] the “% prodrug remaining following incubation for: 2 h in simulated intestinal fluid pH 6.8” value [1] was 95% and the “% prodrug remaining following incubation for: 1 h in simulated gastric fluid pH 1.1” value [2] was 78%.
In the case of `C[C@@H]1N=C(NC(=O)Cc2c(Cl)cccc2Cl)NC1=O` [Compound 39, Guanfacine-(S)-Alanine Cyclic adduct], the “% prodrug remaining following incubation for: 1 h in simulated gastric fluid pH 1.1” value [2] was 89%.
In the case of `CC(C)[C@@H]1N=C(NC(=O)Cc2c(Cl)cccc2Cl)NC1=O` [Compound 35, Guanfacine-(S)-Valine Cyclic adduct], the “% prodrug remaining following incubation for: 1 h in simulated gastric fluid pH 1.1” value [2] was 83%.
In the case of `CC(=O)N[C@@H](COC(=O)NC(=N)NC(=O)Cc1c(Cl)cccc1Cl)C(=O)O` [Compound 15, Acetyl-(S)-Serine (Guanfacine) Carbamate], the “% prodrug remaining following incubation for: 1 h in simulated gastric fluid pH 1.1” value [2] was 83%.
With `CC(C)C[C@@H](N)C(=O)N[C@@H](CCC(=O)NC(=N)NC(=O)Cc1c(Cl)cccc1Cl)C(=O)O` [Compound 42, (R)-Leucine-(S)-γ-Glutamate(Guanfacine) Amide] the “% prodrug remaining following incubation for: 2 h in simulated intestinal fluid pH 6.8” value [1] was 83% and the “% prodrug remaining following incubation for: 1 h in simulated gastric fluid pH 1.1” value [2] was 70%.
For `NCCCC[C@@H]1N=C(NC(=O)Cc2c(Cl)cccc2Cl)NC1=O` [Compound 36, Guanfacine-(S)-Lysine Cyclic adduct], the “% prodrug remaining following incubation for: 1 h in simulated gastric fluid pH 1.1” value [2] was 83%.
In the case of `CC[C@H](C)[C@H](N)C(=O)NCCOC(=O)NC(=N)NC(=O)Cc1c(Cl)cccc1Cl` [Compound 59, Guanfacine (ethanolamine-(S)-Isoleucine) Carbamate], the “% prodrug remaining following incubation for: 2 h in simulated intestinal fluid pH 6.8” value [1] was 100% and the “% prodrug remaining following incubation for: 1 h in simulated gastric fluid pH 1.1” value [2] was 92%.
For `CC(C)[C@@H](N)C(=O)NCCOC(=O)NC(=N)NC(=O)Cc1c(Cl)cccc1Cl` [Compound 27, Guanfacine (ethanolamine-(R)-Valine) Carbamate], the “% prodrug remaining following incubation for: 1 h in simulated gastric fluid pH 1.1” value [2] was 78%.
In the case of `N=C(NC(=O)Cc1c(Cl)cccc1Cl)NC(=O)Nc1ccc(C(=O)O)cc1` [Compound 53, Guanfacine PABA Urea], the “% prodrug remaining following incubation for: 2 h in simulated intestinal fluid pH 6.8” value [1] was 100%.
In the case of `CNCC(=O)N[C@@H](CCOC(=O)NC(=N)NC(=O)Cc1c(Cl)cccc1Cl)C(=O)O` [Compound 66, Sarcosine-(S)-Homoserine (Guanfacine) Carbamate], the “% prodrug remaining following incubation for: 1 h in simulated gastric fluid pH 1.1” value [2] was 86%.
With `N=C(NC(=O)Cc1c(Cl)cccc1Cl)NC(=O)OCCNC(=O)CN` [Compound 49, Guanfacine (ethanolamine Glycine) Carbamate] the “% prodrug remaining following incubation for: 1 h in simulated gastric fluid pH 1.1” value [2] was 87%.
In the case of `CC(C)[C@@H](N)C(=O)N[C@H](C(=O)O)[C@@H](C)OC(=O)NC(=N)NC(=O)Cc1c(Cl)cccc1Cl` [Compound 21, (R)-Valine-(S)-Threonine(Guanfacine) Carbamate], the “% prodrug remaining following incubation for: 1 h in simulated gastric fluid pH 1.1” value [2] was 83%.
For `CC(C)[C@@H](N)C(=O)NCCCC(=O)NC(=N)NC(=O)Cc1c(Cl)cccc1Cl` [Compound 22, (R)-Valine aminobutanoyl Guanfacine Amide], the “% prodrug remaining following incubation for: 2 h in simulated intestinal fluid pH 6.8” value [1] was 85%.
For `N=C(NC(=O)CCNC(=O)[C@@H]1CCC(=O)N1)NC(=O)Cc1c(Cl)cccc1Cl` [Compound 10, Guanfacine B-Alanine-(S)-Pyroglutamic acid Amide], the “% prodrug remaining following incubation for: 1 h in simulated gastric fluid pH 1.1” value [2] was 82%.
For `C[C@H]1N=C(NC(=O)Cc2c(Cl)cccc2Cl)NC1=O` [Compound 51, Guanfacine-(R)-Alanine Cyclic adduct], the “% prodrug remaining following incubation for: 1 h in simulated gastric fluid pH 1.1” value [2] was 80%.
